The NIST ThermoML archive (doi:10.1021/je800557h)
Numbers after ± are expanded uncertainties.

Conditions: Liquid, Ebulliometric method (Recirculating still)

Row | Structure (SMILES) | vapor or sublimation pressure (323.15 K) [kPa] | vapor or sublimation pressure (298.15 K) [kPa]
1 | CC#N [acetonitrile] | 33.86 ± 0.38 | 
2 | O [water] | 12.35 ± 0.087 | 3.166 ± 0.054
